Results taken from BindingDB's records for PubMed 34170694 (China Pharmaceutical University, 2021).

Columns and labels:
[1] = Activation of caspase 3 in human MDA-MB-231 cells measured after 48 hrs by Plate reader method
[2] = biological target: T1, Caspase-3 (Homo sapiens, UniProt P42574); experiment: Activation of caspase 3 in human MDA-MB-231 cells measured after 48 hrs by Plate reader method
T1 sequence (P42574 whole entry): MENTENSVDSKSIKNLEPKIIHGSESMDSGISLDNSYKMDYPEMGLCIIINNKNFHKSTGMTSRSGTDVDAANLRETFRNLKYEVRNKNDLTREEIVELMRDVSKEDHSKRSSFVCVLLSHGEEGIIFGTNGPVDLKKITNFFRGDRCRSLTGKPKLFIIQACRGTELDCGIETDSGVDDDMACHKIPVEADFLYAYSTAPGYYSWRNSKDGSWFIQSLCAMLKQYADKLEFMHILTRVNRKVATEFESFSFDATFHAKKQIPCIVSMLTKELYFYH

| Structure (SMILES) | EC50 [1] | EC50 [2] |
| --- | --- | --- |
| C#CCOC(=O)[C@]1(C)CC[C@]2(C)CC[C@]3(C)C4=CC=C5C(=CC(=O)C(OC(=O)N6c7ccccc7CCc7ccccc76)=C5C)[C@]4(C)CC[C@@]3(C)[C@@H]2C1 | 10 µM |  |
| C=c1c(O)c(O)cc2c1=CC=C1[C@@]2(C)CC[C@@]2(C)[C@@H]3C[C@](C)(C(=O)O)CC[C@]3(C)CC[C@]12C |  | 1.4 µM |
| C#CCOC(=O)[C@]1(C)CC[C@]2(C)CC[C@]3(C)C4=CC=C5C(=CC(=O)C(OC(=O)c6ccc(F)cc6)=C5C)[C@]4(C)CC[C@@]3(C)[C@@H]2C1 | 21.2 µM |  |
| C#CCOC(=O)[C@]1(C)CC[C@]2(C)CC[C@]3(C)C4=CC=C5C(=CC(=O)C(OC(=O)N6CCN(c7ccc(Cl)cc7)CC6)=C5C)[C@]4(C)CC[C@@]3(C)[C@@H]2C1 | 20.1 µM |  |
| C#CCOC(=O)[C@]1(C)CC[C@]2(C)CC[C@]3(C)C4=CC=C5C(=CC(=O)C(OC(=O)N6CCN(c7ccccc7)CC6)=C5C)[C@]4(C)CC[C@@]3(C)[C@@H]2C1 | 19.3 µM |  |
| C#CCOC(=O)[C@]1(C)CC[C@]2(C)CC[C@]3(C)C4=CC=C5C(=CC(=O)C(OC(=O)N6c7ccccc7C=Cc7ccccc76)=C5C)[C@]4(C)CC[C@@]3(C)[C@@H]2C1 | 23.1 µM |  |
| C#CCOC(=O)[C@]1(C)CC[C@]2(C)CC[C@]3(C)C4=CC=C5C(=CC(=O)C(OC(=O)N6CCCCC6)=C5C)[C@]4(C)CC[C@@]3(C)[C@@H]2C1 | 24.1 µM |  |
| C#CCOC(=O)[C@]1(C)CC[C@]2(C)CC[C@]3(C)C4=CC=C5C(=CC(=O)C(OC(=O)N6c7ccccc7Sc7ccccc76)=C5C)[C@]4(C)CC[C@@]3(C)[C@@H]2C1 | 18.5 µM |  |
| C#CCOC(=O)[C@]1(C)CC[C@]2(C)CC[C@]3(C)C4=CC=C5C(=CC(=O)C(OC(=O)N6CCN(c7cccc(OC)c7)CC6)=C5C)[C@]4(C)CC[C@@]3(C)[C@@H]2C1 | 19.6 µM |  |
| C#CCOC(=O)[C@]1(C)CC[C@]2(C)CC[C@]3(C)C4=CC=C5C(=CC(=O)C(OC(=O)/C=C/c6ccccc6)=C5C)[C@]4(C)CC[C@@]3(C)[C@@H]2C1 | 20.1 µM |  |
| C#CCOC(=O)[C@]1(C)CC[C@]2(C)CC[C@]3(C)C4=CC=C5C(=CC(=O)C(OC(=O)N6CCN(c7ccccc7OC)CC6)=C5C)[C@]4(C)CC[C@@]3(C)[C@@H]2C1 | 18.2 µM |  |
| C#CCOC(=O)[C@]1(C)CC[C@]2(C)CC[C@]3(C)C4=CC=C5C(=CC(=O)C(OC(=O)N(c6ccccc6)c6ccccc6)=C5C)[C@]4(C)CC[C@@]3(C)[C@@H]2C1 | 19.9 µM |  |
| CC1=C(O)C(=O)C=C2C1=CC=C1[C@@]2(C)CC[C@@]2(C)[C@@H]3C[C@](C)(C(=O)OCc4ccccc4)CC[C@]3(C)CC[C@]12C | 1.6 µM |  |
| C#CCOC(=O)[C@]1(C)CC[C@]2(C)CC[C@]3(C)C4=CC=C5C(=CC(=O)C(OC(=O)/C=C/c6cccc(C)c6)=C5C)[C@]4(C)CC[C@@]3(C)[C@@H]2C1 | 17.8 µM |  |
| C#CCOC(=O)[C@]1(C)CC[C@]2(C)CC[C@]3(C)C4=CC=C5C(=CC(=O)C(OC(=O)/C=C/c6ccccc6F)=C5C)[C@]4(C)CC[C@@]3(C)[C@@H]2C1 | 14.1 µM |  |
| C#CCOC(=O)[C@]1(C)CC[C@]2(C)CC[C@]3(C)C4=CC=C5C(=CC(=O)C(OC(=O)N6CCN(c7ccccc7Cl)CC6)=C5C)[C@]4(C)CC[C@@]3(C)[C@@H]2C1 | 20.3 µM |  |
| C#CCOC(=O)[C@]1(C)CC[C@]2(C)CC[C@]3(C)C4=CC=C5C(=CC(=O)C(OC(=O)c6ccc(Br)cc6)=C5C)[C@]4(C)CC[C@@]3(C)[C@@H]2C1 | 16.4 µM |  |
| C#CCOC(=O)[C@]1(C)CC[C@]2(C)CC[C@]3(C)C4=CC=C5C(=CC(=O)C(OC(=O)/C=C/c6cccc(Cl)c6)=C5C)[C@]4(C)CC[C@@]3(C)[C@@H]2C1 | 15.7 µM |  |

Second part, led by results:

| EC50 [1] | Structure (SMILES) | EC50 [2] |
| --- | --- | --- |
| 23.9 µM | C#CCOC(=O)[C@]1(C)CC[C@]2(C)CC[C@]3(C)C4=CC=C5C(=CC(=O)C(OC(=O)N(C)C)=C5C)[C@]4(C)CC[C@@]3(C)[C@@H]2C1 |  |
| 14.9 µM | C#CCOC(=O)[C@]1(C)CC[C@]2(C)CC[C@]3(C)C4=CC=C5C(=CC(=O)C(OC(=O)C(=C)C)=C5C)[C@]4(C)CC[C@@]3(C)[C@@H]2C1 |  |
| 20.3 µM | C#CCOC(=O)[C@]1(C)CC[C@]2(C)CC[C@]3(C)C4=CC=C5C(=CC(=O)C(OC(=O)N(C)CCCC)=C5C)[C@]4(C)CC[C@@]3(C)[C@@H]2C1 |  |
| 19.3 µM | C#CCOC(=O)[C@]1(C)CC[C@]2(C)CC[C@]3(C)C4=CC=C5C(=CC(=O)C(OC(C)=O)=C5C)[C@]4(C)CC[C@@]3(C)[C@@H]2C1 |  |
| 18.7 µM | C#CCOC(=O)[C@]1(C)CC[C@]2(C)CC[C@]3(C)C4=CC=C5C(=CC(=O)C(OC(=O)N(C)CC)=C5C)[C@]4(C)CC[C@@]3(C)[C@@H]2C1 |  |
| 20.4 µM | C#CCOC(=O)[C@]1(C)CC[C@]2(C)CC[C@]3(C)C4=CC=C5C(=CC(=O)C(OC(=O)N(CC)CC)=C5C)[C@]4(C)CC[C@@]3(C)[C@@H]2C1 |  |
| 24.3 µM | C#CCOC(=O)[C@]1(C)CC[C@]2(C)CC[C@]3(C)C4=CC=C5C(=CC(=O)C(OC(=O)N6CCCC6)=C5C)[C@]4(C)CC[C@@]3(C)[C@@H]2C1 |  |
| 22.3 µM | C#CCOC(=O)[C@]1(C)CC[C@]2(C)CC[C@]3(C)C4=CC=C5C(=CC(=O)C(OC(=O)N(CCCC)CCCC)=C5C)[C@]4(C)CC[C@@]3(C)[C@@H]2C1 |  |
| 19.7 µM | C#CCOC(=O)[C@]1(C)CC[C@]2(C)CC[C@]3(C)C4=CC=C5C(=CC(=O)C(OC(=O)/C=C/C)=C5C)[C@]4(C)CC[C@@]3(C)[C@@H]2C1 |  |
| 17.5 µM | C#CCOC(=O)[C@]1(C)CC[C@]2(C)CC[C@]3(C)C4=CC=C5C(=CC(=O)C(OC(=O)N(CCC)CCC)=C5C)[C@]4(C)CC[C@@]3(C)[C@@H]2C1 |  |
| 22.1 µM | C#CCOC(=O)[C@]1(C)CC[C@]2(C)CC[C@]3(C)C4=CC=C5C(=CC(=O)C(OC(=O)C=C)=C5C)[C@]4(C)CC[C@@]3(C)[C@@H]2C1 |  |
| 20.5 µM | C#CCOC(=O)[C@]1(C)CC[C@]2(C)CC[C@]3(C)C4=CC=C5C(=CC(=O)C(OC(=O)N(C)CCC)=C5C)[C@]4(C)CC[C@@]3(C)[C@@H]2C1 |  |
| 20.9 µM | C#CCOC(=O)[C@]1(C)CC[C@]2(C)CC[C@]3(C)C4=CC=C5C(=CC(=O)C(OC(=O)CCC)=C5C)[C@]4(C)CC[C@@]3(C)[C@@H]2C1 |  |
| 20.5 µM | C#CCOC(=O)[C@]1(C)CC[C@]2(C)CC[C@]3(C)C4=CC=C5C(=CC(=O)C(OC(=O)N6CCN(C)CC6)=C5C)[C@]4(C)CC[C@@]3(C)[C@@H]2C1 |  |
